Experiment [1] concerns ZR-75-1. The experiment is described as follows: In Vitro Cancer Cell Assay (cell viability, Cell Titer Glow, 10 days). It counts as cell-based. The note with it: Homo sapiens; ZR-75-1 cells; Table 2. The procedure:
ZR-75-1 and T47D are breast cancer cell lines containing high KAT6A protein expression. Proliferation of these cell lines are inhibited upon treatment with a KAT6A inhibitor. Cell line MCF7 is used as a negative control. MCF7 cells have a low KAT6A protein expression and are not growth inhibited upon treatment with KAT6A inhibitors. WM-1119 is used as a positive control.
1500 cells are seeded per well and incubated overnight at 37° C. and 5% CO2. Cells are treated after 24 hours with a compound (stock solution, 10 mM in DMSO) with 9-10 dilutions and a final DMSO concentration of 0.5%. […] Test compounds are tested like WM-1119. Plates are incubated at 37° C. and 5% CO2 for 10 days. Media is replenished after every alternate day. At day 10, Cell Titer Glow is added to the wells and luminescence is recorded after 10 min incubation. Data are normalized to 100% with DMSO control and subtracting media blank. Cell viability is of the test compounds is measured.
The above procedure can be followed for determining activity in additional cell lines, for example, ZR-75-1, T47D, CHAGOK1 and other cell lines that have high expression of KAT6A. The number of cells used will be optimized based on growth rate of the individual cell lines.
In general terms: ATP-based viability assays read luminescence as a measure of living cells.

Experiment [2] concerns the target T1, Recombinant KAT6A/MOZ (488-778) protein (Homo sapiens, UniProt Q92794).
T1 construct: Recombinant KAT6A/MOZ (488-778) protein (Active motif, Catalog #81223); purchased Active Motif 81223
The experiment is described as follows: Kat6a AlphaLISA Inhibition Screening Assay. In kind it is biochemical. To be noted: 60′ pre-incubation; Table 2; read-out: Kat6A biochemical assay: IC50. In short, it runs like this:
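Recombinant KAT6A (488-778), 25 nM, was preincubated with compound (10-point dose response) for 60 or 10 min. It then reacted 120 min at room temperature with 200 nM biotin-H3(1-21) peptide and 400 nM acetyl-CoA, pH 8.0, with 330 nM TSA present. Acetylation was detected by AlphaLISA (anti-acetyl-lysine acceptor, streptavidin donor beads).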

A value given as a limit tells only on which side of the number the result lay.

T1 sequence (Q92794 488-778): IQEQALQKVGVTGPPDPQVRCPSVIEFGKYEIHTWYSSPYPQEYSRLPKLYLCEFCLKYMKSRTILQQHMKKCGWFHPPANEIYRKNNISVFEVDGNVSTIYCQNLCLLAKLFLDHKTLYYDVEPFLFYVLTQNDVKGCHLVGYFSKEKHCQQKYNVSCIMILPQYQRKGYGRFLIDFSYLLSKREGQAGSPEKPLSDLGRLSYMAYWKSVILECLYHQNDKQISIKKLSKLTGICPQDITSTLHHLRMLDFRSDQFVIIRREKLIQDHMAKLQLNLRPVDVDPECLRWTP

The EC50 is the concentration giving half of the maximal effect. Read a high EC50 as weaker potency. Usually IC50 stands for the point on the concentration scale where inhibition reaches its midpoint. In the case of `C#CC(=O)NCc1cnn(Cc2cc(OC)c3c(NS(=O)(=O)c4ccccc4C(=O)OC)noc3c2)c1` [Synthetic Example 36, methyl 2-(N-(4-methoxy-6-((4-(propiolamidomethyl)-1H-pyrazol-1-yl)methyl)benzo[d]isoxazol-3-yl)sulfamoyl)benzoate], the concentration giving a half-maximal response (EC50) in experiment [1] was not above 10 µM. Further, the half-maximal inhibitory concentration (IC50) in experiment [2] was not above 10 µM.

As for `C#CC(=O)N1Cc2cnn(Cc3cc(OC)c4c(NS(=O)(=O)c5ccccc5OC)noc4c3)c2C1` [Synthetic Example 26A, 2-methoxy-N-(4-methoxy-6-((5-propioloyl-5,6-dihydropyrrolo[3,4-c]pyrazol-1(4H)-yl)methyl)benzo[d]isoxazol-3-yl)benzenesulfonamide], the 50% effective concentration (EC50) in experiment [1] is not above 10 µM. Further, the half-inhibitory concentration (IC50) in experiment [2] is not above 10 µM.

Take `C=CS(=O)(=O)NCc1ccn(Cc2cc(OC)c3c(NS(=O)(=O)Cc4ccccc4)noc3c2)n1` [Synthetic Example 21, N-((1-((4-methoxy-3-((phenylmethyl)sulfonamido)benzo[d]isoxazol-6-yl)methyl)-1H-pyrazol-3-yl)methyl)ethenesulfonamide]: the 50% effective concentration (EC50) in experiment [1] is more than 10 µM. Moreover, the IC50 in experiment [2] was not above 10 µM.

In the case of `C=CS(=O)(=O)NCc1cnn(Cc2cc(OC)c3c(NS(=O)(=O)CC4CCCCC4)noc3c2)c1` [compound 6], the EC50 in experiment [1] was not above 10 µM. The IC50 in experiment [2] was not above 10 µM.

In experiment [1], `C#CC(=O)NCc1cnn(Cc2cc(OC)c3c(NS(=O)(=O)c4ccccc4OC)noc3c2)c1` [Synthetic Example 31, N-((1-((4-methoxy-3-((2-methoxyphenyl)sulfonamido)benzo[d]isoxazol-6-yl)methyl)-1H-pyrazol-4-yl)methyl) propiolamide] had an EC50 not above 10 µM. Further, the concentration for half-maximal inhibition (IC50) in experiment [2] is not above 10 µM.

In experiment [1], `C=CC(=O)NCc1ccn(Cc2cc(OC)c3c(NS(=O)(=O)Cc4ccccc4)noc3c2)n1` [Synthetic Example 20, N-((1-((4-methoxy-3-((phenylmethyl)sulfonamido)benzo[d]isoxazol-6-yl)methyl)-1H-pyrazol-3-yl)methyl)acrylamide] came in with an EC50 of more than 10 µM. In experiment [2], the half-maximal inhibitory concentration (IC50) was not above 10 µM.

With `C=CS(=O)(=O)NCc1cnn(Cc2cc(OC)c3c(NS(=O)(=O)c4ccccc4OC)noc3c2)c1` [Synthetic Example 32, 2-methoxy-N-(4-methoxy-6-((4-(vinylsulfonamidomethyl)-1H-pyrazol-1-yl)methyl)benzo[d]isoxazol-3-yl)benzenesulfonamide], in experiment [1], the EC50 is not above 10 µM. Further, the IC50 in experiment [2] was not above 10 µM.

With `C#CC(=O)N1Cc2cn(Cc3cc(OC)c4c(NS(=O)(=O)c5c(OC)cccc5OC)noc4c3)nc2C1` [Synthetic Example 25B, 2,6-dimethoxy-N-(4-methoxy-6-((5-propioloyl-5,6-dihydropyrrolo[3,4-c]pyrazol-2(4H)-yl)methyl)benzo[d]isoxazol-3-yl)benzenesulfonamide], the 50% effective concentration (EC50) in experiment [1] is more than 10 µM. For the same compound, in experiment [2], the concentration for half-maximal inhibition (IC50) is not above 10 µM.

Values taken from patent US11976075B2, “Inhibitors of the MYST family of lysine acetyl transferases” (Isosterix, Inc., priority 2022, dated 2024).
